Data published in US10550100B2, “5-[3-[piperzin-1-yl]-3-oxo-propyl]-imidazolidine-2,4-dione derivatives as ADAMTS 4 and 5 inhibitors for treating E.G. osteoarthritis” (GALAPAGOS NV, priority 2016, dated 2020).
Where two headings read alike, the source gives them in different places.

How the values were obtained:
Assay type in all cases: biochemical
human ADAMTS-5 = human ADAMTS-5 (Homo sapiens (Human), UniProt Q9UNA0); assay: hADAMTS-5 TBIS-1 cleavage assay, Protocol 3; conditions: Protocol 3, TBIS-1 substrate, 90 min at 37° C.; read-out: hADAMTS-5 potency IC50
Description: The reaction is initiated by adding to the assay plate TBIS-1 (10 μL, 4.5 μM, Anaspec) in the same buffer.
Finally, the fluorescence is read on the Envision (Perkin Elmer) after an incubation of 90 min at 37° C. (Excitation 485 nm, emission 530).

human ADAMTS6 = human ADAMTS6 (Homo sapiens (Human), UniProt Q9UKP5); assay: hADAMTS-6 520 MMP FRET substrate XII cleavage assay; conditions: 37° C. for 2 h, read-out: hADAMTS-6 potency IC50
Source text: The IC50 value for test compounds can be determined in a fluorescent based protease assay.
The basis for the assay is the cleavage of the substrate 520 MMP FRET substrate XII by human ADAMTS6.
The substrate contains sequence Arg-Pro-Lys-Pro-Tyr-Ala-Nva-Trp-Met-Lys (SEQ ID NO: 7) with attached a fluorescent probe and a quencher. Without ADAMTS6, the emission of the probe is quenched. If the substrate is cleaved by ADAMTS6, the emission of the probe is not quenched anymore. Inhibition of ADAMTS6 activity, will result in a decrease of the signal.
To perform the assay, 4 μL of a dilution series of compound in water, starting from 20 μM highest concentration, 1/5 dilution, is added to the wells. 2 ng ADAMTS6 enzyme is diluted in 25 mM Tris pH8.0, 0.05% CHAPS, 2.5 mM CaCl2 in a total volume of 26 μL (final concentration 0.73 nM). The reaction is started by addition of 10 μL of 1 μM 520 MMP FRET Substrate XII (final concentration, diluted in same buffer as described above) and the mixture is incubated at 37° C. for 2 h. […] After this incubation, cleavage of the substrate is measured using the Envision (Perkin Elmer, exc485/em530).

human TACE = human TACE (Homo sapiens (Human), UniProt P78536); assay: hTACE 5FAM-[…]-5TAMRA cleavage assay; conditions: 75 min at room temperature, read-out: hTACE potency IC50
Description: Finally, the fluorescence is read on the Envision (Perkin Elmer) after an incubation of 75 min at room temperature (Excitation 485 nm, Emission 530).

human MMP13 = human MMP13 (Homo sapiens (Human), UniProt P45452); assay: hMMP13 390 MMP FRET Substrate I cleavage assay, Protocol 1; conditions: Protocol 1, 390 MMP FRET Substrate I; read-out: hMMP-13 potency IC50
Description: The basis for the assay is the cleavage of the substrate 390 MMP FRET Substrate I (Anaspec Cat# AS-27076) by human MMP13 (Chemicon, Cat#CC068).
Human MMP13 is preactivated by incubated the enzyme in the same buffer complemented with 1 mM freshly prepared p-Aminophenylmercuric acetate (AMPA) for 1 h at 37° C.
The reaction is initiated by adding to the assay plate 390 MMP FRET Substrate I (10 μL, 2.5 μM) in the same buffer.
Finally, the fluorescence is read on the Envision (Perkin Elmer) after an incubation of 45 min at room temperature (Excitation 485 nm, Emission 530).

Chain of human ADAMTS-5 (Q9UNA0 262-930): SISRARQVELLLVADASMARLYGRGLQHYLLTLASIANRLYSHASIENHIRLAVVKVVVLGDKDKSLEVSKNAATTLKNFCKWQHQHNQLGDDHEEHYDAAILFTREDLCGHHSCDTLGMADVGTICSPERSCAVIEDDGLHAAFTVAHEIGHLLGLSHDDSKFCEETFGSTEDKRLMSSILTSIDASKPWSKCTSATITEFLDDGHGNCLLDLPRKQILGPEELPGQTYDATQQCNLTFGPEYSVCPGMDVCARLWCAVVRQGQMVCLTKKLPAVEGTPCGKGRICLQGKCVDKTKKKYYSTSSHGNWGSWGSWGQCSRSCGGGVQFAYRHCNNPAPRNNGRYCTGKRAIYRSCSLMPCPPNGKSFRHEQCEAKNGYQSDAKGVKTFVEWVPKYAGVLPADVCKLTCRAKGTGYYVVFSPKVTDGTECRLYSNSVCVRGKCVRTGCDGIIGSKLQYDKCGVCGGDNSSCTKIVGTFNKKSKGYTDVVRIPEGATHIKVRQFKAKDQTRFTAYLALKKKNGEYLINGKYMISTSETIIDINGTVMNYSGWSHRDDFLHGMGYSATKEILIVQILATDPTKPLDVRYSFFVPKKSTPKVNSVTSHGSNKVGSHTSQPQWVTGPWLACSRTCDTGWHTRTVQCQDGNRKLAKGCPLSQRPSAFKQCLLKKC
Chain of human TACE (P78536 215-671): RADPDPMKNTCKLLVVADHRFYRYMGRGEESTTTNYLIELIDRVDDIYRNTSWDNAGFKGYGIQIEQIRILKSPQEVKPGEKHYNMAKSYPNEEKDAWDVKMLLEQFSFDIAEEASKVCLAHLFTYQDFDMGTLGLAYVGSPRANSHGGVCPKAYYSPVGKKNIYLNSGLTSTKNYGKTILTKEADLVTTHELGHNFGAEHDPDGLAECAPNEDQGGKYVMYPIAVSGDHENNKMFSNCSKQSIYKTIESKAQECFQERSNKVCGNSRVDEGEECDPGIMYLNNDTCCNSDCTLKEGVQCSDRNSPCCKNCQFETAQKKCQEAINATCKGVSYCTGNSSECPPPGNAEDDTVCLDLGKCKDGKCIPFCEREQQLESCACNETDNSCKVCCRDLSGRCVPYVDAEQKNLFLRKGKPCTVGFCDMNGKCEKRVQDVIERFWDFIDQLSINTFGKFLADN
Chain of human ADAMTS6 (Q9UKP5 other isoform, or with tags, fused parts or gaps): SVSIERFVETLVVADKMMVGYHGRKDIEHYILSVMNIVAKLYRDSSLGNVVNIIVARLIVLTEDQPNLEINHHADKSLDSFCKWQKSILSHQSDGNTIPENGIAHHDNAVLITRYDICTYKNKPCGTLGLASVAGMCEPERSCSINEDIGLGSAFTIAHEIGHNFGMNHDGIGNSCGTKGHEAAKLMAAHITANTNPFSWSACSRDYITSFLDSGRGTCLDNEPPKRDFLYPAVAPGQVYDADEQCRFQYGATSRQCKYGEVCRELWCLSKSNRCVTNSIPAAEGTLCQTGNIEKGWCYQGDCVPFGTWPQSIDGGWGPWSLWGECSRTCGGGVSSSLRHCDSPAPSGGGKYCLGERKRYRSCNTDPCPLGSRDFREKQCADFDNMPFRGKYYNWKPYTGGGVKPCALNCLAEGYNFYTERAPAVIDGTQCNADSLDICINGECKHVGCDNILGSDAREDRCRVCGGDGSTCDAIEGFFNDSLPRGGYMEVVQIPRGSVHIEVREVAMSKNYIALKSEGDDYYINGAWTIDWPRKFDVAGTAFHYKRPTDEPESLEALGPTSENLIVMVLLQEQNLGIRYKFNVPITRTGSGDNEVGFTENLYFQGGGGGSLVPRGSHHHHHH

SMILES	IC50 (human ADAMTS-5) [nM]	IC50 (human ADAMTS6) [nM]	IC50 (human TACE; 5FAM-LAQAVRSSSRK-5TAMRA) [nM]	IC50 (human MMP13) [nM]	IC50 (human TACE; 5FAM-[…]-5TAMRA) [nM]
C[C@H]1CN(C(=O)CC[C@@]2(C3CC3)NC(=O)NC2=O)CC[C@@H]1c1ccc(F)c(F)c1 [Cpd 77, (S)-5-cyclopropyl-5-(3-((3R,4S)-4-(3,4-difluorophenyl)-3-methylpiperidin-1-yl)-3-oxopropyl) imidazolidine-2,4-dione]	> 100	> 100	> 100		
C[C@H]1CN(C(=O)CCC2(C3CC3)NC(=O)NC2=O)CC[C@H]1c1ccc(F)c(F)c1 (stereo partly drawn) [Cpd 76, 5-cyclopropyl-5-(3-((3R,4R)-4-(3,4-difluorophenyl)-3-methylpiperidin-1-yl)-3-oxopropyl) imidazolidine-2,4-dione]	50 to 100	50 to 100	> 100		
COc1cc(C2CCN(C(=O)CCC3(C)NC(=O)NC3=O)CC2)cc(F)c1F (stereo not shown) [Cpd 45, 5-(3-(4-(3,4-difluoro-5-methoxyphenyl)piperidin-1-yl)-3-oxopropyl)-5-methyl-imidazolidine-2,4-dione]	> 100	0.001 to 25	> 100	> 100	
COc1cc(C2CCN(C(=O)CC[C@H]3NC(=O)NC3=O)CC2)cc(F)c1F [Cpd 43, (R)-5-(3-(4-(3,4-difluoro-5-methoxy-phenyl)piperidin-1-yl)-3-oxopropyl) imidazolidine-2,4-dione]	> 100	25 to 50	> 100	> 100	
CCOc1cc(C2CCN(C(=O)CC[C@H]3NC(=O)NC3=O)CC2)cc(OC)c1Cl [Cpd 88, (5R)-5-[3-[4-(4-chloro-3-ethoxy-5-methoxy-phenyl)-1-piperidyl]-3-oxo-propyl] imidaz olidine-2,4-dione]	> 100	0.001 to 25			50 to 100
Cc1ccccc1C1CCN(C(=O)CC[C@H]2NC(=O)NC2=O)CC1 [Cpd 58, (R)-5-(3-oxo-3-(4-o-tolylpiperidin-1-yl)propyl) imidazolidine-2,4-dione]	> 100	> 100	> 100	> 100	
COc1cc(F)cc(C2CCN(C(=O)CCC3(C)NC(=O)NC3=O)CC2)c1 (stereo not shown) [Cpd 50, 5-(3-(4-(3-fluoro-5-methoxyphenyl)piperidin-1-yl)-3-oxopropyl)-5-methyl-imidazolidine-2,4-dione]	> 100	50 to 100	> 100	> 100	
COc1cc(OC)cc(C2CCN(C(=O)CC[C@H]3NC(=O)NC3=O)CC2)c1 [Cpd 34, (R)-5-(3-(4-(3,5-dimethoxy-phenyl)piperidin-1-yl)-3-oxopropyl) imidazolidine-2,4-dione]	> 100	50 to 100	> 100	> 100	
COc1cc(C2CCN(C(=O)CCC3(C)NC(=O)NC3=O)CC2)cc(F)c1Cl (stereo not shown) [Cpd 47, 5-(3-(4-(4-chloro-3-fluoro-5-methoxyphenyl)piperidin-1-yl)-3-oxopropyl)-5-methyl-imidazolidine-2,4-dione]		0.001 to 25	> 100	> 100	
COc1cc(C2CCN(C(=O)CC[C@H]3NC(=O)NC3=O)CC2)c(C)cc1Cl [Cpd 33, (R)-5-(3-(4-(4-chloro-5-methoxy-2-methylphenyl)piperidin-1-yl)-3-oxopropyl) imidazolidine-2,4-dione]	> 100	25 to 50	> 100	> 100	
COc1cc(C2CCN(C(=O)CC[C@H]3NC(=O)NC3=O)CC2)ccc1Cl [Cpd 32, (R)-5-(3-(4-(4-chloro-3-methoxyphenyl)piperidin-1-yl)-3-oxopropyl) imidazolidine-2,4-dione]	> 100	25 to 50	> 100	> 100	
Cc1cc(Cl)c(F)cc1C1CCN(C(=O)CC[C@H]2NC(=O)NC2=O)CC1 [Cpd 63, (R)-5-(3-(4-(4-chloro-5-fluoro-2-methylphenyl)piperidin-1-yl)-3-oxopropyl) imidazolidine-2,4-dione]	> 100	50 to 100			
COc1ccc(OC)c(C2CCN(C(=O)CCC3(C)NC(=O)NC3=O)CC2)c1 (stereo not shown) [Cpd 39, 5-(3-(4-(2,5-dimethoxy-phenyl)piperidin-1-yl)-3-oxopropyl)-5-methyl-imidazolidine-2,4-dione]	> 100	> 100			
Cc1cc(Cl)ccc1C1CCN(C(=O)CCC2(C)NC(=O)NC2=O)CC1 (stereo not shown) [Cpd 60, 5-(3-(4-(4-chloro-2-methylphenyl)piperidin-1-yl)-3-oxopropyl)-5-methyl-imidazolidine-2,4-dione]	> 100	50 to 100			
COc1cc(C2CCN(C(=O)CCC3(C)NC(=O)NC3=O)CC2)ccc1Cl (stereo not shown) [Cpd 36, 5-(3-(4-(4-chloro-3-methoxyl-phenyl)piperidin-1-yl)-3-oxopropyl)-5-methyl-imidazolidine-2,4-dione]		0.001 to 25	> 100	> 100	
CC1(CCC(=O)N2CCC(c3ccc(F)c(F)c3)CC2)NC(=O)NC1=O (stereo not shown) [Cpd 56, 5-(3-(4-(3,4-difluorophenyl)piperidin-1-yl)-3-oxopropyl)-5-methyl-imidazolidine-2,4-dione]	> 100	> 100			
CC1(CCC(=O)N2CCC(c3ccc(-c4ccccc4F)s3)CC2)NC(=O)NC1=O (stereo not shown) [Cpd 112, 5-[3-[4-[5-(2-fluorophenyl)-2-thienyl]-1-piperidyl]-3-oxo-propyl]-5-methyl-imidazolidine-2,4-dione]	> 100	50 to 100			
COc1ccc(OC)c(C2CCN(C(=O)CC[C@H]3NC(=O)NC3=O)CC2)c1 [Cpd 35, (R)-5-(3-(4-(2,5-dimethoxy-phenyl)piperidin-1-yl)-3-oxopropyl) imidazolidine-2,4-dione]	> 100	> 100			
COc1ccc(Cl)cc1C1CCN(C(=O)CC[C@H]2NC(=O)NC2=O)CC1 [Cpd 40, (R)-5-(3-(4-(5-chloro-2-methoxy-phenyl)piperidin-1-yl)-3-oxopropyl) imidazolidine-2,4-dione]	> 100	> 100			
C[C@H]1CN(C(=O)CC[C@@]2(C3CC3)NC(=O)NC2=O)CC[C@H]1c1ccc(F)c(F)c1 [Cpd 78, (S)-5-cyclopropyl-5-(3-((3R,4R)-4-(3,4-difluorophenyl)-3-methylpiperidin-1-yl)-3-oxopropyl) imidazolidine-2,4-dione]	25 to 50	25 to 50	> 100		
O=C1NC(=O)[C@@H](CCC(=O)N2CCC(c3ccc(F)c(F)c3)CC2)N1 [Cpd 53, (R)-5-(3-(4-(3,4-difluorophenyl)piperidin-1-yl)-3-oxopropyl) imidazolidine-2,4-dione]	> 100	> 100			
COc1cc(C2CCN(C(=O)CC[C@H]3NC(=O)NC3=O)CC2)ccc1F [Cpd 52, (R)-5-(3-(4-(4-fluoro-3-methoxyphenyl)piperidin-1-yl)-3-oxopropyl) imidazolidine-2,4-dione]	> 100	> 100	> 100		
COc1ccc(Cl)cc1C1CCN(C(=O)CCC2(C)NC(=O)NC2=O)CC1 (stereo not shown) [Cpd 41, 5-(3-(4-(5-chloro-2-methoxy-phenyl)piperidin-1-yl)-3-oxopropyl)-5-methyl-imidazolidine-2,4-dione]	> 100			> 100	
